Experimental data as given in patent US20040029927A1, “Use of a compound in providing refreshedness on waking and a method for the treatment of grogginess therewith” (The Boots Company PLC, priority 2001, published 2004).
Where a name gives a salt, the structure may show the parent alone.

Assays:
[1] = system: patients with temporary sleep disturbance; assay: Clinical trial, Loughborough sleep log: last night I slept (quality of sleep, 5-point scale); type: in vivo, human
Description: (§1) The efficacy of triprolidine in enabling a patient to feel refreshed or alert upon waking after taking triprolidine prior to sleeptime was investigated using patients with a history of sleep disorders and utilising triprolidine prepared in accordance with example 3.
(§2) A multiple-dose, placebo-controlled, parallel-group, double-blind, randomised study investigating the effects of 2.5 mg and 5 mg triprolidine in patients with temporary sleep disturbance.
(§3) Male and Female candidates aged 18 years and above were recruited to one of five research centres by means of local advertising. Candidates were screened by means of a telephone questionnaire and selected candidates invited for interview at the research centre. Key inclusion criteria used to select candidates for the study were:
(§4) The candidates came to the research centre on Thursday or Friday and were fitted with a wrist actimeter (AW4 from Cambridge Technology) to establish a baseline measure for SDI and were provided with diary cards to record subjective assessments for the Loughborough Sleep Log and the Karolinska Sleepiness Scale. They returned to the investigational site on the Monday and were issued with the study compositions (2.5 mg triprolidine, 5 mg triprolidine or placebo). The investigator telephoned a central randomisation centre where the subject was randomised to a particular treatment group using a dynamic balanced randomisation algorithm. The subject was given three doses of their allocated study medication and instructed to take a single dose of two tablets 20 minutes before they intended to go to sleep on three consecutive evenings, commencing that evening. The diary cards for the Loughborough Sleep Log and Karolinska Sleepiness Scale were asked to be completed on waking.
(§5) In the trial, patients were tested during a seven day period and the results have been analysed for a mean of three days in the middle of this period. The effects of triprolidine at dose level 2.5 mg and 5.0 mg are compared with placebo in table 1.
(§6) The following is a copy of the “Loughborough sleep log questionnaire” which was used by patients in the study and provided the data for datasets a and b in table 1

[2] = system: patients with temporary sleep disturbance; assay: Clinical trial, Loughborough sleep log: feeling of refreshedness 15 minutes after waking (5-point scale); type: in vivo, human
Description: as §1, §2, §3, §4
Candidates were required to complete a questionnaire 15 minutes after awaking on the feeling of refreshedness assessed on a 5-point scale, the Loughborough sleep log.
as §5
Generally the treatment groups were well balanced in terms of the demographic data. Unless otherwise mentioned all group data was analysed using ANOVA. In two cases, namely, how the patient felt 15 minutes after awakening in the Loughborough Sleep Log and the Karolinska Sleepiness Scale at 20 minutes, the two variables were analysed using ANCOVA by including the weekend and the mean of Friday/Saturday/Sunday night as a covariate. The method was a closed test procedure (Williams' test). Each of the tests were to be conducted at the 5% level. The analysis of the secondary endpoints was similarly conducted using the Student's t-tests on parameter estimates taken from the analysis of variance model presented above.
as §6

[3] = system: patients with temporary sleep disturbance; assay: Clinical trial, Karolinska 9-point sleepiness scale; type: in vivo, human
Description: as §1
(a) Karolinska scale as defined in: Int. J. Neuroscience 52 29-37 (1990); and
as §2, §3, §4
A daytime sleepiness assessment was also made 20 minutes, 2 hours and 4 hours after awaking on the Karolinska 9-point scale, i.e. the sleepiness scale.
Karolinska's sleepiness scale is set out below and the results for placebo, 2.5 and 5.0 mg doses of triprolidine are shown in tables 4 and 5. Table 4 relates to the number of individuals experiencing scales 1, 2 or 3 on the Karolinska scale and table 5 relates to the number of individuals experiencing scales 8 and 9.
Karolinska Sleepiness Scale
This will be completed 20 minutes after awakening and then at 2 hours and 4 hours following the first assessment on days 5, 6, 7 and 8.

volunteers = details: single doses 10 mg or 20 mg sustained release at bedtime; cited from earlier work

In the case of `Cc1ccc(/C(=C\CN2CCCC2)c2ccccn2)cc1` [TRP.HCl.H2O], the “last night I slept (1- extremely well, 5- extremely badly), Mean” value (“last night I slept … Mean” for short) ([1]; 2.5 mg, Mean of 3) is reported as 2.73, the “last night I slept … Mean” value ([1]; 2.5 mg, Mon) is reported as 2.67 and the “Last Night I Slept Extremely Well or Very Well Responses” value ([1]; 2.5 mg, Monday) is reported as 41.4%. The “last night I slept … Mean” value ([1]; 2.5 mg, Tues) was 2.71, the “Last Night I Slept Extremely Well or Very Well Responses” value ([1]; 2.5 mg, Tuesday) was 41.8% and the “last night I slept … Mean” value ([1]; 2.5 mg, Wed) was 2.81. The “Last Night I Slept Extremely Well or Very Well Responses” value ([1]; 2.5 mg, Wednesday) was 37.9%, the “last night I slept … Mean” value ([1]; 5 mg, Mean of 3) was 2.69 and the “last night I slept … Mean” value ([1]; 5 mg, Mon) was 2.49. The “Last Night I Slept Extremely Well or Very Well Responses” value ([1]; 5 mg, Monday) was 50.9%, the “last night I slept … Mean” value ([1]; 5 mg, Tues) was 2.93 and the “Last Night I Slept Extremely Well or Very Well Responses” value ([1]; 5 mg, Tuesday) was 28.8%. For the same compound, the “last night I slept … Mean” value ([1]; 5 mg, Wed) was 2.64, the “Last Night I Slept Extremely Well or Very Well Responses” value ([1]; 5 mg, Wednesday) was 39.3% and the “15 mins after awaking (1- very refreshed 5- very tired), Mean” value (“15 mins after awaking” below) ([2]; 2.5 mg, Mean of 3) was 3.24. The “15 mins after awaking” value ([2]; 2.5 mg, Mon) was 3.33, the “Awoke Very Refreshed or Refreshed Responses” value ([2]; 2.5 mg, Monday) was 23% and the “15 mins after awaking” value ([2]; 2.5 mg, Tues) was 3.23. The “Awoke Very Refreshed or Refreshed Responses” value ([2]; 2.5 mg, Tuesday) was 23%, the “15 mins after awaking” value ([2]; 2.5 mg, Wed) was 3.18 and the “Awoke Very Refreshed or Refreshed Responses” value ([2]; 2.5 mg, Wednesday) was 25.8%. The “feeling of refreshedness 15 minutes after waking versus placebo” value ([2]; 2.5 mg, p<0.05) was “more refreshed than those on placebo”, the “15 mins after awaking” value ([2]; 5 mg, Mean of 3) was 3.59 and the “15 mins after awaking” value ([2]; 5 mg, Mon) was 3.72. For the same compound, the “Awoke Very Refreshed or Refreshed Responses” value ([2]; 5 mg, Monday) was 11.5%, the “15 mins after awaking” value ([2]; 5 mg, Tues) was 3.56 and the “Awoke Very Refreshed or Refreshed Responses” value ([2]; 5 mg, Tuesday) was 8.2%. For the same compound, the “15 mins after awaking” value ([2]; 5 mg, Wed) was 3.54, the “Awoke Very Refreshed or Refreshed Responses” value ([2]; 5 mg, Wednesday) was 14.8% and the “percentage of people feeling alert, very alert or extremely alert on waking versus placebo” value ([3]; 2.5 mg) was “greater percentage”. The “percentage of people feeling sleepy, some effort, or very sleepy, great effort to keep awake, on waking versus placebo” value ([3]; 2.5 mg) was “lower percentage”, the “residual hangover effects/morning grogginess” value ([3]; 2.5 mg) was “no evidence of residual hangover effects/morning grogginess” and the “I feel (i) sleepy, some effort or (ii) very sleepy, a great effort to keep awake (Karolinska scales 8 and 9)” value (“I feel (i) sleepy” below) ([3]; 2.5 mg, Monday) was 11.5%. For the same compound, the “I feel extremely alert, very alert or alert (Karolinska scales 1, 2 or 3)” value (shortened to “I feel extremely alert”) ([3]; 2.5 mg, Monday) was 21.3%, the “I feel (i) sleepy” value ([3]; 2.5 mg, Tuesday) was 13.1% and the “I feel extremely alert” value ([3]; 2.5 mg, Tuesday) was 21.3%. The “I feel (i) sleepy” value ([3]; 2.5 mg, Wednesday) was 6.5%, the “I feel extremely alert” value ([3]; 2.5 mg, Wednesday) was 21.0% and the “I feel (i) sleepy” value ([3]; 5 mg, Monday) was 12.5%. The “I feel extremely alert” value ([3]; 5 mg, Monday) was 6.3%, the “I feel (i) sleepy” value ([3]; 5 mg, Tuesday) was 17.5% and the “I feel extremely alert” value ([3]; 5 mg, Tuesday) was 9.5%. The “I feel (i) sleepy” value ([3]; 5 mg, Wednesday) was 12.7%, the “I feel extremely alert” value ([3]; 5 mg, Wednesday) was 17.5% and the daytime sleepiness ([3]; either dose (2.5 mg or 5 mg)) was “lack of daytime sleepiness”. The “sleep onset latency (time required to fall asleep) compared with placebo” value (volunteers) was “did not significantly alter”, the “total sleep time compared with placebo” value (volunteers) was “no effect” and the “wakefulness during sleep compared with placebo” value (volunteers) was “no effect”.
